Results taken from the kinase profiling compilation of Christmann-Franck et al. (2016).
Each block holds one molecule with its values, some of them ahead of it.

Columns and labels:
Assay in all cases: KINOMEscan competition binding
[1] = target: DDR1 (human) (UniProt Q08345); settings: compound 10.0 µM
[2] = target: MAPK11 (human) (UniProt Q15759); settings: compound 10.0 µM
[3] = target: CDK14 (human) (UniProt O94921); settings: compound 10.0 µM
[4] = target: EPHA4 (human) (UniProt P54764); settings: compound 10.0 µM
[5] = target: FES (human) (UniProt P07332); settings: for kinase still bound, per cent of control: compound 10.0 µM
[6] = target: TEK (human) (UniProt Q02763); settings: compound 10.0 µM
[7] = target: FGFR1 (human) (UniProt P11362); settings: compound 10.0 µM
[8] = target: TIE1 (human) (UniProt P35590); settings: compound 10.0 µM
[9] = target: MAPK12 (human) (UniProt P53778); settings: compound 10.0 µM
[10] = target: TNIK (human) (UniProt Q9UKE5); settings: compound 10.0 µM
[11] = target: NLK (human) (UniProt Q9UBE8); settings: compound 10.0 µM
[12] = test system: ABL1 (human), P00519 [M351T]; settings: compound 10.0 µM
[13] = target: MAP3K3 (human) (UniProt Q99759); settings: compound 10.0 µM
[14] = target: SRC (human) (UniProt P12931); settings: compound 10.0 µM
[15] = target: RIPK1 (human) (UniProt Q13546); settings: compound 10.0 µM
[16] = target: EPHB2 (human) (UniProt P29323); settings: compound 10.0 µM
[17] = target: ROCK2 (human) (UniProt O75116); settings: compound 10.0 µM
[18] = target: ADCK3 (human) (UniProt Q8NI60); settings: compound 10.0 µM
[19] = target: RPS6KA6 KD1 (human) (UniProt Q9UK32); settings: compound 10.0 µM
[20] = target: AXL (human) (UniProt P30530); settings: compound 10.0 µM
[21] = target: CDC42BPB (human) (UniProt Q9Y5S2); settings: compound 10.0 µM
[22] = target: LATS1 (human) (UniProt O95835); settings: compound 10.0 µM
[23] = target: RIOK2 (human) (UniProt Q9BVS4); settings: compound 10.0 µM
[24] = target: RPS6KA6 KD2 (human) (UniProt Q9UK32); settings: compound 10.0 µM
[25] = target: BMPR2 (human) (UniProt Q13873); settings: compound 10.0 µM
[26] = target: STK17A (human) (UniProt Q9UEE5); settings: compound 10.0 µM
[27] = target: PAK2 (human) (UniProt Q13177); settings: compound 10.0 µM
[28] = target: NEK2 (human) (UniProt P51955); settings: compound 10.0 µM
[29] = target: TGFBR2 (human) (UniProt P37173); settings: compound 10.0 µM
[30] = target: DYRK1B (human) (UniProt Q9Y463); settings: compound 10.0 µM
[31] = target: TGFBR1 (human) (UniProt P36897); settings: compound 10.0 µM
[32] = target: AURKB (human) (UniProt Q96GD4); settings: compound 10.0 µM
[33] = target: CSNK1E (human) (UniProt P49674); settings: compound 10.0 µM
[34] = target: AURKC (human) (UniProt Q9UQB9); settings: compound 10.0 µM
[35] = target: ERBB2 (human) (UniProt P04626); settings: compound 10.0 µM
[36] = target: CDC42BPG (human) (UniProt Q6DT37); settings: compound 10.0 µM
[37] = target: PLK4 (human) (UniProt O00444); settings: compound 10.0 µM
[38] = target: MARK4 (human) (UniProt Q96L34); settings: compound 10.0 µM
[39] = target: ACVR1B (human) (UniProt P36896); settings: compound 10.0 µM
[40] = target: STK4 (human) (UniProt Q13043); settings: compound 10.0 µM
[41] = target: NEK5 (human) (UniProt Q6P3R8); settings: compound 10.0 µM
[42] = target: WEE2 (human) (UniProt P0C1S8); settings: compound 10.0 µM

DDR1 (human), sequence (Q08345 whole entry, looked up): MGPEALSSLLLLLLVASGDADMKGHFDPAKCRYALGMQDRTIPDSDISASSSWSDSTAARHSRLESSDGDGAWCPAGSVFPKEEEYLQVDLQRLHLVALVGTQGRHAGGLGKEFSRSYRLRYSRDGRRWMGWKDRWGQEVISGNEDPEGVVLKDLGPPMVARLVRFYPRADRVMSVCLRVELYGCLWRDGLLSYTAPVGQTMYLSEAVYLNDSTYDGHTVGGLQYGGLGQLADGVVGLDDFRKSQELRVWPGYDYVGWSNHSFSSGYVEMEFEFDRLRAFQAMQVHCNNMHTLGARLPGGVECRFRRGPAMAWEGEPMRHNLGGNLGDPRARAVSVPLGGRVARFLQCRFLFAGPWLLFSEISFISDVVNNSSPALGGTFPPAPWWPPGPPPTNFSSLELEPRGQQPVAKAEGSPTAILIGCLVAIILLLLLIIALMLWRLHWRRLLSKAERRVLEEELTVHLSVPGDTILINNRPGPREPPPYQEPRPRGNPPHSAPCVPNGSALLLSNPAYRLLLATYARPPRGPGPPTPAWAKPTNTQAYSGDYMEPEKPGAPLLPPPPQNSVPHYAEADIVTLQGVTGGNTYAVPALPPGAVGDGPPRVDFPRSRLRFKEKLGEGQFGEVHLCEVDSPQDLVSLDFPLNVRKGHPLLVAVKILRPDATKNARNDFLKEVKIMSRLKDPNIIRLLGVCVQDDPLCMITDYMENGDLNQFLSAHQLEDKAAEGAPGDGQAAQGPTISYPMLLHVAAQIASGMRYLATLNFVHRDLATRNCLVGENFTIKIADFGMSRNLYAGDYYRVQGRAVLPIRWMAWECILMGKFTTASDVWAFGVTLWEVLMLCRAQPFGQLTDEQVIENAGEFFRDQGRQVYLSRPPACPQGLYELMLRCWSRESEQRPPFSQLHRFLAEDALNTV
RIOK2 (human), sequence (Q9BVS4 whole entry, looked up): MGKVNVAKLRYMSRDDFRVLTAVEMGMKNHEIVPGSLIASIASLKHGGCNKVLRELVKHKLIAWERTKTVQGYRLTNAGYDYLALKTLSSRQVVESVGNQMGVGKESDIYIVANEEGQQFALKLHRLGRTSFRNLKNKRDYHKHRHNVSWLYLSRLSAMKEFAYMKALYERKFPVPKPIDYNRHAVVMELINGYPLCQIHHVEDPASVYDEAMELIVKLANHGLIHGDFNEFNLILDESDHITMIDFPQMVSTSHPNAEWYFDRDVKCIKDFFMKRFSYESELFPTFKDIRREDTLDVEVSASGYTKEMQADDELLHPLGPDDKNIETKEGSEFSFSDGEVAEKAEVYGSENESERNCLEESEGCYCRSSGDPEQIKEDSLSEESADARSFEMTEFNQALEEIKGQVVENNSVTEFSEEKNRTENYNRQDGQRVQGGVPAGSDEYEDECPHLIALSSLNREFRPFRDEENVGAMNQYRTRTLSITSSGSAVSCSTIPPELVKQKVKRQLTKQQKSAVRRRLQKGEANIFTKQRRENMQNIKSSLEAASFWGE
PLK4 (human), sequence (O00444 whole entry, looked up): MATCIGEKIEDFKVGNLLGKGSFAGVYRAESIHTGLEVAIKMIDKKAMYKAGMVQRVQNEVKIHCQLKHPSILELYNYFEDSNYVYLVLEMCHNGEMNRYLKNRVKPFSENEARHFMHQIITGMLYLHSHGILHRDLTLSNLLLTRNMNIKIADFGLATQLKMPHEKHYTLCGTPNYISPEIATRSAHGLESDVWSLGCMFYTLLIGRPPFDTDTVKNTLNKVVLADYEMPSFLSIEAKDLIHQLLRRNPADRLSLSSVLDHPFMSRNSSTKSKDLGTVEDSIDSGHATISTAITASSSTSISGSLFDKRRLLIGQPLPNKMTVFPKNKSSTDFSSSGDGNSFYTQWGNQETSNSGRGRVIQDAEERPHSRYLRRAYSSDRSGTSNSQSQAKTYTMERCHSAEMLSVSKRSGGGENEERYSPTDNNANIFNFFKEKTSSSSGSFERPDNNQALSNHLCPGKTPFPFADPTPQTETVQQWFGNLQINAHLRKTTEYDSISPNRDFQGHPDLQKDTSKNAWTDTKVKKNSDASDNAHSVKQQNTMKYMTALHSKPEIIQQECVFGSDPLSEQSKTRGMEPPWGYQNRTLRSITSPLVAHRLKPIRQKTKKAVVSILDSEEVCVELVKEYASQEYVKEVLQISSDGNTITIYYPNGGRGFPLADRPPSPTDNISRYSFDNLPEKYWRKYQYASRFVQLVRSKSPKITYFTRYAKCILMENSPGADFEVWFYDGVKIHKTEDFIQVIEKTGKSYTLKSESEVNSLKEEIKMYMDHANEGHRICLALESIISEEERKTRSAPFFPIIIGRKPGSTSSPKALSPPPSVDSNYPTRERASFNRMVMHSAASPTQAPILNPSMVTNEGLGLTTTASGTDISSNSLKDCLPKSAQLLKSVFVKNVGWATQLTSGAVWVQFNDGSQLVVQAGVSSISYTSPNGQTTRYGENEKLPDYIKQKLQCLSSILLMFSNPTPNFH
ADCK3 (human), sequence (Q8NI60 whole entry, looked up): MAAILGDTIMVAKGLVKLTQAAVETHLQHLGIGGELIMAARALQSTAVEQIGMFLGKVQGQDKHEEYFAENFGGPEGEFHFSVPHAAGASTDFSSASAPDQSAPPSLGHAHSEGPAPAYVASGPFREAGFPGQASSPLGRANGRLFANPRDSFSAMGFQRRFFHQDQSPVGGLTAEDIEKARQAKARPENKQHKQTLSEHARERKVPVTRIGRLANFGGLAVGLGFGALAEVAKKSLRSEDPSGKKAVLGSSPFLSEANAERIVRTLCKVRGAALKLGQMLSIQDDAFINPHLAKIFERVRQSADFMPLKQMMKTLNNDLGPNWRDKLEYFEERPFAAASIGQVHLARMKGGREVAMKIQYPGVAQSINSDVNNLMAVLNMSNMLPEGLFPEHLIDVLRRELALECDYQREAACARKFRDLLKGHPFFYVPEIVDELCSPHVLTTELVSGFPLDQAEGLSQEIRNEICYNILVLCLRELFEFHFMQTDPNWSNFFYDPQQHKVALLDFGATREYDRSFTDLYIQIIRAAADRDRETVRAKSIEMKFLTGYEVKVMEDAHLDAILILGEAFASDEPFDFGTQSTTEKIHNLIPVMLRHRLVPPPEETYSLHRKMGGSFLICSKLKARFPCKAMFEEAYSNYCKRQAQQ
MAPK11 (human), sequence (Q15759 whole entry, looked up): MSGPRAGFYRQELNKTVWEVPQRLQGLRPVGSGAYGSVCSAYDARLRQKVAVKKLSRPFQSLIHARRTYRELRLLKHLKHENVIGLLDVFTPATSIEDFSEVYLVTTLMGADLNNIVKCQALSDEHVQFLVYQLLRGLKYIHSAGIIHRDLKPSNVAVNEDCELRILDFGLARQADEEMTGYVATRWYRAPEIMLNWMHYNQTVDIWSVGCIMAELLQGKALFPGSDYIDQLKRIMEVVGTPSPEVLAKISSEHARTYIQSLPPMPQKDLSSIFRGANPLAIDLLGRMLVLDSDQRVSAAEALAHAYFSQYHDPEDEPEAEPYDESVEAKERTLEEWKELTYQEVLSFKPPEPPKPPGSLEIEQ
CDC42BPG (human), sequence (Q6DT37 whole entry, looked up): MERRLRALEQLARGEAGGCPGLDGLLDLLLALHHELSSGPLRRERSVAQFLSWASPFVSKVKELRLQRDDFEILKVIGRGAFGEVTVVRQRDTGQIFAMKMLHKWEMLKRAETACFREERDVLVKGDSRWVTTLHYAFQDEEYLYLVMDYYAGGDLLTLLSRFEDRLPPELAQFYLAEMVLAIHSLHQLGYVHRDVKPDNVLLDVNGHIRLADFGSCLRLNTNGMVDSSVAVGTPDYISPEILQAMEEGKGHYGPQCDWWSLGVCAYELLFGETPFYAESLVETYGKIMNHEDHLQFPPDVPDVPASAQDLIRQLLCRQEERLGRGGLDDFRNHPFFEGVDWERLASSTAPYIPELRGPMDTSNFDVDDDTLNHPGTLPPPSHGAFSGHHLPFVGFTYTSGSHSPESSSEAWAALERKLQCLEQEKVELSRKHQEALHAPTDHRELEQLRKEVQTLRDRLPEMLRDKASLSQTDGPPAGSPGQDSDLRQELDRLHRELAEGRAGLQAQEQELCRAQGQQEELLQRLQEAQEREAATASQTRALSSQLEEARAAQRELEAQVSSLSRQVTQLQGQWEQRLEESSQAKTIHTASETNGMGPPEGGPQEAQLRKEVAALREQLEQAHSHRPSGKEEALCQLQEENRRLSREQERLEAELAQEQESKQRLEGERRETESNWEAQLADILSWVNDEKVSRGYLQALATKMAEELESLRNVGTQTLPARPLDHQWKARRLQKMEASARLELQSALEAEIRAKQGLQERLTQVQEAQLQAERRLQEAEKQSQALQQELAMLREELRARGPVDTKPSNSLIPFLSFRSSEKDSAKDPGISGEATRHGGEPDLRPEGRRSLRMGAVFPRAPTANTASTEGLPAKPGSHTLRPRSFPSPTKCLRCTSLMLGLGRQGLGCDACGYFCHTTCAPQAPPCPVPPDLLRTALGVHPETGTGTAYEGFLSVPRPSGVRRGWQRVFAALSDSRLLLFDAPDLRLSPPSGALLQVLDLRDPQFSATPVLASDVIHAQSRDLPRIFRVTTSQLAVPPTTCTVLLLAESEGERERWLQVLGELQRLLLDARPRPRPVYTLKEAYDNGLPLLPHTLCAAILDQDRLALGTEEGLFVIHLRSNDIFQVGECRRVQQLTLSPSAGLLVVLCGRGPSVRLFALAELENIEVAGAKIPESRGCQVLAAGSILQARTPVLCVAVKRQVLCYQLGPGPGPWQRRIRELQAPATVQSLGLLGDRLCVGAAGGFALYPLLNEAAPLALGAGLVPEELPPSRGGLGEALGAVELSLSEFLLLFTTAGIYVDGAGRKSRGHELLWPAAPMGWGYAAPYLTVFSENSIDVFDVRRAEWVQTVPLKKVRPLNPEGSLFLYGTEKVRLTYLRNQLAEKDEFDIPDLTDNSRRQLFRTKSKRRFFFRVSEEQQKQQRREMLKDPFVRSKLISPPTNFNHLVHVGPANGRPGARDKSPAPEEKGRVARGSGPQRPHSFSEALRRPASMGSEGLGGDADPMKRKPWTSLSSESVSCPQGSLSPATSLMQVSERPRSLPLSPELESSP

- kinase still bound, per cent of control [1]: 0.05%
- kinase still bound, per cent of control [2]: 0%
- kinase still bound, per cent of control [3]: 0.4%
- kinase still bound, per cent of control [4]: 5.8%
- kinase still bound, per cent of control [5]: 2.2%
- kinase still bound, per cent of control [6]: 0%
- kinase still bound, per cent of control [7]: 1.7%
- kinase still bound, per cent of control [8]: 0.95%
- kinase still bound, per cent of control [9]: 0%
- kinase still bound, per cent of control [10]: 8.2%
- kinase still bound, per cent of control [11]: 14%
- kinase still bound, per cent of control [12]: 0.35%
- kinase still bound, per cent of control [13]: 12%
- kinase still bound, per cent of control [14]: 0.2%
- kinase still bound, per cent of control [15]: 0%
- kinase still bound, per cent of control [16]: 11%
Structure (SMILES): CCN1CCN(Cc2ccc(NC(=O)c3ccc(C)c(Oc4ccnc5[nH]ccc45)c3)cc2C(F)(F)F)CC1

Structure (SMILES): CCOc1cc(N2CCC(N3CCCCC3)CC2)ccc1Nc1nc(Nc2ccccc2S(=O)(=O)C(C)C)c2cn[nH]c2n1
- kinase still bound, per cent of control [17]: 25%
- kinase still bound, per cent of control [1]: 100%
- kinase still bound, per cent of control [18]: 84%
- kinase still bound, per cent of control [19]: 23%
- kinase still bound, per cent of control [2]: 100%
- kinase still bound, per cent of control [3]: 100%
- kinase still bound, per cent of control [20]: 100%
- kinase still bound, per cent of control [4]: 100%
- IC50 [5]: 58 µM
- kinase still bound, per cent of control [5]: 3.6%
- kinase still bound, per cent of control [6]: 100%
- kinase still bound, per cent of control [21]: 100%
- kinase still bound, per cent of control [7]: 100%
- kinase still bound, per cent of control [22]: 100%
- kinase still bound, per cent of control [23]: 76%
- kinase still bound, per cent of control [8]: 76%
- kinase still bound, per cent of control [24]: 2.1%
- kinase still bound, per cent of control [9]: 100%
- kinase still bound, per cent of control [25]: 85%
- kinase still bound, per cent of control [26]: 100%
- kinase still bound, per cent of control [10]: 87%
- kinase still bound, per cent of control [27]: 82%
- kinase still bound, per cent of control [28]: 100%
- kinase still bound, per cent of control [11]: 97%
- kinase still bound, per cent of control [29]: 100%
- kinase still bound, per cent of control [30]: 42%
- kinase still bound, per cent of control [31]: 95%
- kinase still bound, per cent of control [32]: 100%
- kinase still bound, per cent of control [33]: 74%
- kinase still bound, per cent of control [12]: 53%
- kinase still bound, per cent of control [34]: 100%
- kinase still bound, per cent of control [13]: 69%
- kinase still bound, per cent of control [35]: 37%
- kinase still bound, per cent of control [36]: 100%
- kinase still bound, per cent of control [37]: 74%
- kinase still bound, per cent of control [38]: 71%
- kinase still bound, per cent of control [14]: 69%
- kinase still bound, per cent of control [15]: 100%
- kinase still bound, per cent of control [39]: 100%
- kinase still bound, per cent of control [16]: 100%
- kinase still bound, per cent of control [40]: 100%
- kinase still bound, per cent of control [41]: 100%
- kinase still bound, per cent of control [42]: 100%

- kinase still bound, per cent of control [17]: 0.95%
- kinase still bound, per cent of control [1]: 0.05%
- kinase still bound, per cent of control [18]: 9.2%
- kinase still bound, per cent of control [19]: 1.1%
- kinase still bound, per cent of control [2]: 40%
- kinase still bound, per cent of control [3]: 40%
- kinase still bound, per cent of control [20]: 0.1%
- kinase still bound, per cent of control [4]: 30%
- kinase still bound, per cent of control [6]: 0%
- kinase still bound, per cent of control [21]: 25%
- kinase still bound, per cent of control [7]: 0%
- kinase still bound, per cent of control [22]: 32%
- kinase still bound, per cent of control [23]: 5.3%
- kinase still bound, per cent of control [24]: 1.8%
- kinase still bound, per cent of control [9]: 40%
- kinase still bound, per cent of control [25]: 40%
- kinase still bound, per cent of control [26]: 5.9%
- kinase still bound, per cent of control [10]: 12%
- kinase still bound, per cent of control [27]: 30%
- kinase still bound, per cent of control [28]: 2.5%
- kinase still bound, per cent of control [11]: 40%
- kinase still bound, per cent of control [29]: 2.7%
- kinase still bound, per cent of control [30]: 40%
- kinase still bound, per cent of control [31]: 0.2%
- kinase still bound, per cent of control [32]: 1%
- kinase still bound, per cent of control [33]: 40%
- kinase still bound, per cent of control [12]: 5%
- kinase still bound, per cent of control [34]: 0.1%
- kinase still bound, per cent of control [13]: 2.8%
- kinase still bound, per cent of control [35]: 8%
- kinase still bound, per cent of control [36]: 23%
- kinase still bound, per cent of control [37]: 0%
- kinase still bound, per cent of control [38]: 0%
- kinase still bound, per cent of control [14]: 0.2%
- kinase still bound, per cent of control [15]: 18%
- kinase still bound, per cent of control [39]: 0.05%
- kinase still bound, per cent of control [16]: 33%
- kinase still bound, per cent of control [40]: 4.1%
- kinase still bound, per cent of control [41]: 40%
- kinase still bound, per cent of control [42]: 40%
Structure (SMILES): COc1cc(N2CCC(N3CCN(C)CC3)CC2)ccc1Nc1ncc(Cl)c(Nc2ccccc2S(=O)(=O)C(C)C)n1

Structure (SMILES): CCN1CCN(Cc2ccc(NC(=O)c3ccc(C)c(/C=C/c4cnc(Nc5cc(N6CCNCC6)nc(C)n5)cn4)c3)cc2C(F)(F)F)CC1
- kinase still bound, per cent of control [17]: 51%
- kinase still bound, per cent of control [1]: 0%
- kinase still bound, per cent of control [18]: 100%
- kinase still bound, per cent of control [19]: 100%
- kinase still bound, per cent of control [2]: 3.2%
- kinase still bound, per cent of control [3]: 88%
- kinase still bound, per cent of control [20]: 26%
- kinase still bound, per cent of control [4]: 16%
- kinase still bound, per cent of control [5]: 9.4%
- kinase still bound, per cent of control [6]: 0%
- kinase still bound, per cent of control [21]: 100%
- kinase still bound, per cent of control [7]: 1.6%
- kinase still bound, per cent of control [22]: 55%
- kinase still bound, per cent of control [23]: 85%
- kinase still bound, per cent of control [8]: 2.8%
- kinase still bound, per cent of control [24]: 11%
- kinase still bound, per cent of control [9]: 39%
- kinase still bound, per cent of control [25]: 100%
- kinase still bound, per cent of control [26]: 11%
- kinase still bound, per cent of control [10]: 1.9%
- kinase still bound, per cent of control [27]: 69%
- kinase still bound, per cent of control [28]: 100%
- kinase still bound, per cent of control [11]: 65%
- kinase still bound, per cent of control [29]: 54%
- kinase still bound, per cent of control [30]: 76%
- kinase still bound, per cent of control [31]: 99%
- kinase still bound, per cent of control [32]: 100%
- kinase still bound, per cent of control [33]: 100%
- kinase still bound, per cent of control [12]: 3.8%
- kinase still bound, per cent of control [34]: 45%
- kinase still bound, per cent of control [13]: 0.3%
- kinase still bound, per cent of control [35]: 0%
- kinase still bound, per cent of control [36]: 100%
- kinase still bound, per cent of control [37]: 92%
- kinase still bound, per cent of control [38]: 100%
- kinase still bound, per cent of control [14]: 0.25%
- kinase still bound, per cent of control [15]: 2.7%
- kinase still bound, per cent of control [39]: 96%
- kinase still bound, per cent of control [16]: 5.7%
- kinase still bound, per cent of control [40]: 22%
- kinase still bound, per cent of control [41]: 49%
- kinase still bound, per cent of control [42]: 83%
